Data: patent US7820642B2, “Nandrolone 17β-carbonates” (The United States of America as represented by the …, priority 2005, dated 2010)
“Also recorded” adds a separate entry of the source.

Legend:
Format in all cases: in vivo, rat
[1] = tested on: castrate Sprague-Dawley male rats; test: Duration of androgenic activity after a single subcutaneous injection (ventral prostate weight, AUC); details: for AUC of ventral prostate weight (duration of androgenic activity): 14 weeks
Protocol: Duration of androgenic activity was determined as follows. Immature (22 days of age) male rats of the Sprague-Dawley CD strain were orchidectomized under METOFANE anesthesia and randomly assigned to groups of forty or more animals. Animals were maintained under standard conditions of housing and had free access to food and water. Illumination was controlled for 14-hour periods of light and 10 hours of darkness. Animals received a single subcutaneous injection of 0.6 mg of test material in aqueous suspending vehicle (ASV) and/or an oily vehicle (10% ethanol/sesame oil, sesame oil containing 5 mg/ml chlorobutanol as a preservative or ethyl oleate) on the day of surgery. Controls received vehicle alone. Testosterone enanthate in sesame oil was used as a standard. In cases where the test material was not solid at room temperature, i.e., a wax or oil, 10% ethanol/sesame oil or ethyl oleate was used as a vehicle. Five rats from each group were sacrificed at weekly or biweekly intervals and seminal vesicle and ventral prostate glands were excised, cleaned of adherent fat and connective tissue and weighed to the nearest 0.1 mg. Ventral prostate weight was used as the endpoint because it is the more sensitive organ to androgenic stimulation. Area under the curve (AUC) was calculated by the trapezoidal rule.
Each data point represents the mean (n=5) and standard error of the mean (SEM) prostate weight for each time period. […] In FIG. 8, the data for 1.2 mg dose groups are shown together with historical data for testosterone undecanoate in aqueous suspension and testosterone enanthate in sesame oil as standards. Both testosterone undecanoate and testosterone enanthate are commercially available.

[2] = Serum levels of dimethandrolone (CDB-1321) and immunoreactive metabolites by radioimmunoassay; set-up: AUC of serum concentration of dimethandrolone and immunoreactive metabolites: unit not given here; details: n=5, FIG. 9
Protocol: Serum levels of testosterone and CDB-1321 were determined as follows. Rats from a duration of androgenic activity study were exsanguinated at autopsy, serum prepared by allowing blood to clot at room temperature and the sample frozen for subsequent radioimmunoassay. A radioimmunoassay for the free alcohol, 7a, 11β-dimethyl-19-nortestosterone, was developed using antisera generated in rabbits against the 3-carboxymethyloxime-BSA conjugate and employing the corresponding histamine conjugate for iodination as tracer.

[3] = tested on: castrate Sprague-Dawley male rats; test: Androgenic activity, Hershberger test (ventral prostate weight)
Protocol: The androgenic activity was tested as follows (see, Hershberger et al., Proc. Soc. Exptl. Biol. Med., 83: 175-180 (1953)). Immature (approximately 21 day old) male rats of the Sprague-Dawley strain were orchidectomized under METOFANE® anesthesia and randomly assigned to groups of ten animals for each dose level of test material and vehicle controls. Animals were maintained under standard conditions of housing and had free access to food and water. Illumination was controlled for 14-hour periods of light and 10 hours of darkness. Test compounds were dissolved in 10% ethanol/sesame oil and administered by gavage (oral) or subcutaneous injection daily for seven consecutive days starting on the day of surgery. Animals were sacrificed 24 hours after the last dose and the ventral prostate and seminal vesicles excised, cleaned of fat and connective tissue, blotted on moist filter paper and weighed to the nearest 0.1 mg. Ventral prostate weight was used as the endpoint because ventral prostate is the more sensitive organ to androgenic stimulation.
Statistical analysis was performed by conventional methods using a PROPHET data management system operating on SUN Microsystems OS 4.1.1 (see e.g., Bliss, Cl (1952) The Statistics of Bioassay, New York, Academic Press; Hollister, C (1988), Nucleic Acids Research, 16:1873-1875.
Each data point represents the mean (n=10) and standard error of the mean (SEM) prostate weight for each dose level. The potency ratio and 95% confidence index are set forth below.

[4] = tested on: luteinizing hormone (rLH); test: Serum rLH in castrate male rats
Protocol: FIG. 14 depicts the serum levels of rLH as a function of time for groups 2 and 4 of the animals. Serum rLH were measured in the blood from castrate male rats following fourteen daily 12 mg/kg oral doses of CDB-4719A (dimethandrolone 17β-decylcarbonate, filled circles, group 2) or CDB-4521C (dimethandrolone 17β-undecanoate, open triangles, group 4) in 10% ethanol/sesame oil on days 0-13. Samples from weeks −1 to 6 or from weeks 7 to 9 and repeats were assayed as described in the protocols MEL-480AD using [^125I]-rLH or MEL-480AE, AG using [^125I]-rLH. The limit of detection shown as dotted line, or EC90, was the mean of 0.13, 0.14, or 0.16 in the first assay and 0.17, 0.22, or 0.21 ng/ml in the second series of assays based on 200 μl of serum per tube.
FIG. 15 depicts the serum levels of rLH as a function of time for groups 1 and 3 of the animals. Serum rLH were measured in the blood from castrate male rats following a single 12 mg/kg subcutaneous injection of CDB-4719A (dimethandrolone 17β-decylcarbonate, filled circles, group 1) or CDB-4521C (dimethandrolone 17β-undecanoate, open triangles, group 3) in an aqueous suspending vehicle on day 0. Samples from weeks −1 to 6 or from weeks 7 to 22 and repeats were assayed as described in the protocols MEL-480AD using [^125I]-rLH or MEL-480AE, AG, AH using [^125I]-rLH. The limit of detection shown as dotted line, or EC90, was the mean of 0.13, 0.14, or 0.16 in the first assay and 0.17, 0.22, or 0.21 ng/ml in the second series of assays based on 200 μl of serum per tube.
Carbonates of the invention, in embodiments, can be used to suppress luteinizing hormone in a mammal for extended periods of time. […] CDB-4719A (dimethandrolone 17β-decylcarbonate) was administered to castrate male rats, daily at 12 mg/kg oral doses, and CDB-4521C (dimethandrolone 17β-undecanoate) was administered in 10% ethanol/sesame oil, on days 0-13. […] This observation could have advantageous clinical implications, for example, in obtaining sustained suppression of the luteinizing hormone or hormone replacement therapy. In addition, this could have an advantage by providing a facile treatment using oral compositions such as tablets or capsules of the carbonates of the invention in suppressing hormone levels. Such treatment can be advantageous relative to a treatment involving parenteral (e.g., subcutaneous) administration of a drug such as the ester drug. Patient compliance is better with oral formulations than injections.
FIG. 15 provides a comparison between CDB-4719A (dimethandrolone 17β-decylcarbonate) and CDB-4521C (dimethandrolone 17β-undecanoate). A single dose (12 mg/kg) of the compound was administered to castrate male rats by subcutaneous injection in an aqueous suspending vehicle on day 0. The serum rLH concentration was monitored over a 22-week period and beyond.

[5] = 1.2 mg, 14-week observation period
[6] = single subcutaneous injection of 0.6 mg in aqueous suspending vehicle
[7] = single subcutaneous injection of 1.2 mg in aqueous suspending vehicle
[8] = fourteen daily 12 mg/kg oral doses in 10% ethanol/sesame oil, days 0-13, FIG. 14

## CCCCCCCCCCOC(=O)O[C@H]1CC[C@H]2[C@H]3[C@H]([C@@H](C)C[C@]12C)[C@H]1CCC(=O)C=C1C[C@H]3C [CDB-4719, 17β-Decyloxycarbonyloxy-7α,11β-dimethylestr-4-en-3-one]
[1]; [5]
  AUC relative to testosterone enanthate in sesame oil: more than three times greater
  AUC relative to testosterone undecanoate: more than five times greater
[1]; single subcutaneous injection in aqueous vehicle
  Duration of androgenic activity (in words): far more potent than testosterone; also recorded: most dramatic increase and maintenance of ventral prostate weight
[1]; [6]
  AUC of ventral prostate weight (duration of androgenic activity): 1417 mg·week
[1]; [7]
  AUC of ventral prostate weight (duration of androgenic activity): 2764 mg·week
[2]; [6]
  AUC of serum concentration of dimethandrolone and immunoreactive metabolites: 4151
[2]; [7]
  AUC of serum concentration of dimethandrolone and immunoreactive metabolites: 6010
[3]; oral, daily for 7 days in 10% ethanol/sesame oil, CDB 110 (methyltestosterone) = 1.000 assigned, FIG. 5, ranges did not pass all significance tests
  Androgenic activity Potency Ratio: five to nine times
[3]; oral, daily for 7 days in 10% ethanol/sesame oil, CDB 110 (methyltestosterone) = 1.000 assigned, FIG. 5, ranges did not pass all significance tests, listed as 4719
  Androgenic activity Potency Ratio: 5.486-8.992^1,2
[3]; oral, direct comparison of CDB-4718 and CDB-4719
  Androgenic activity Potency Ratio, 4718 vs. 4719: 3.016
[3]; subcutaneous injection, daily for 7 days, CBD-111 (testosterone) = 1.000 assigned, FIG. 6, footnote 2 values did not pass all significance tests
  Androgenic activity Potency Ratio: no more potent than testosterone standard
[3]; subcutaneous injection, daily for 7 days, CBD-111 (testosterone) = 1.000 assigned, FIG. 6, footnote 2 values did not pass all significance tests, listed as 4719
  Androgenic activity Potency Ratio: 0.64
[4]; [8]
  Serum rLH after administration was discontinued: remained suppressed for several weeks
  Serum rLH during administration: remained suppressed
[4]; single 12 mg/kg subcutaneous injection in aqueous suspending vehicle on day 0, FIG. 15
  Serum rLH up to 16 weeks post administration: remains suppressed
[4]; single 12 mg/kg subcutaneous injection in aqueous suspending vehicle on day 0, monitored over 22 weeks, FIG. 15
  Serum rLH after 16 weeks: remained suppressed even at week 22
